Legend:
rice, transplanted = test: Test F flood (paddy) test; assay type: in vivo, Oryza sativa cv. Japonica—M202; conditions: 21 d, scale 0-100
From the text: Three plastic pots (ca. 16-cm diameter) per rate were partially filled with sterilized Tama silt loam soil comprising a 35:50:15 ratio of sand, silt and clay and 2.6% organic matter. Separate plantings for each of the three pots were as follows. Seeds from the U.S. of monochoria (Monochoria vaginalis), sedge, umbrella (small-flower umbrella sedge, Cyperus difformis), bulrush, […] bulrush, Scirpus juncoides), and […] (purple […] coccinea), were planted into one 16-cm pot for each rate. Seeds from the U.S. of flatsedge, rice (rice flatsedge, Cyperus iria), sprangletop, Brdd. (bearded sprangletop, Leptochloa fascicularis), one stand of 9 or 10 water seeded rice seedlings (Rice, W.S. Jap, Oryza sativa cv. 'Japonica-[…]' or Rice, W.S. Ind, 'Indica'), and two stands of 3 or 4 seedlings of rice, transplanted (transplanted rice, Oryza sativa cv. 'Japonica-[…]') were planted into one 16-cm pot for each rate. Seeds from the U.S. of barnyardgrass (Echinochloa crus-galli), […] (common […], Alisma plantago-aquatica), and watergrass, late (late watergrass, Echinochloa oryzicola) were planted into one 16-cm pot for each rate. Plantings were sequential so that crop and weed species were at the 2.0 to 2.5-leaf stage at time of treatment. Potted plants were grown in a greenhouse with day/night temperature settings of 30/27° C., and supplemental balanced lighting was provided to maintain a 16-h photoperiod. Test pots were maintained in the greenhouse until test completion. At time of treatment, test pots were flooded to 3 cm above the soil surface, treated by application of test compounds directly to the paddy water, and then maintained at that water depth for the duration of the test. Effects of treatments on rice and weeds were visually evaluated by comparison to untreated controls after 21 d. Plant response ratings, summarized in Table F, are based on a scale of 0 to 100 where 0 is no effect and 100 is complete control. A dash (-) response means no test result.

foxtail, green = test: Test C pre-/postemergence herbicide test; assay type: in vivo, Setaria viridis
From the text: Seeds of plant species selected from blackgrass (Alopecurus myosuroides), ryegrass, Italian (Italian ryegrass, Lolium multiflorum), wheat (winter wheat, Triticum aestivum), galium (catchweed bedstraw, Galium aparine), corn (Zea mays), crabgrass, large (large crabgrass, Digitaria sanguinalis), foxtail, giant (giant foxtail, Setaria faberii), johnsongrass (Sorghum halepense), lambsquarters (Chenopodium album), morningglory (Ipomoea coccinea), nutsedge, yellow (yellow nutsedge, Cyperus esculentus), pigweed (Amaranthus retroflexus), ragweed (common ragweed, Ambrosia elatior), soybean (Glycine max), barnyardgrass (Echinochloa crus-galli), oilseed rape (Brassica napus), waterhemp (common waterhemp, Amaranthus rudis), kochia (Kochia scoparia), oat, wild (wild oat, Avena fatua), surinam grass (Brachiaria decumbens), foxtail, green (green foxtail, Setaria viridis), goosegrass (Eleusine indica), bromegrass, downy (downy bromegrass, Bromus tectorum), nightshade (eastern black nightshade, Solanum ptycanthum), cocklebur (common cocklebur, Xanthium strumarium), cupgrass, woolly (woolly cupgrass, Eriochloa villosa), bermudagrass (Cynodon dactylon), sunflower, (common oilseed sunflower, Helianthus annuus), Russian thistle (Salsola kali) and velvetleaf (Abutilon theophrasti) were planted into a blend of loam soil and sand and treated preemergence with test chemicals formulated in a non-phytotoxic solvent mixture which included a surfactant. At the same time, plants selected from these crop and weed species and also barley (winter barley, Hordeum vulgare), […]), chickweed (common chickweed, Stellaria media), deadnettle (henbit deadnettle, Lamium amplexicaule), and canarygrass (littleseed canarygrass, Phalaris minor) were planted in pots containing Redi-Earth® planting medium (Scotts Company, 14111 Scottslawn Road, Marysville, Ohio 43041) comprising spaghnum peat moss, vermiculite, wetting agent and starter nutrients and treated with postemergence applications of test chemicals formulated in the same manner. Plants ranged in height from 2 to 18 cm (1- to 4-leaf stage) for postemergence treatments. Treated plants and controls were maintained in a greenhouse for 13 to 15 days, after which time all species were compared to controls and visually evaluated. Plant response ratings, summarized in Table C, are based on a scale of 0 to 100 where 0 is no effect and 100 is complete control. A dash (-) response means no test result.

field violet = test: Test D pre-/postemergence herbicide test; assay type: in vivo, Viola arvensis; conditions: for Plant response rating: Field Violet, scale 0 to 100; for Plant response rating, Field Violet: scale 0 to 100 (0 no effect, 100 complete control)
From the text: (§1) Seeds of plant species selected from bluegrass (annual bluegrass, Poa annua), blackgrass (Alopecurus myosuroides), canarygrass (littleseed canarygrass, Phalaris minor), chickweed (common chickweed, Stellaria media), galium (catchweed bedstraw, Galium aparine), bromegrass, downy (downy bromegrass, Bromus tectorum), field poppy (Papaver rhoeas), field violet (Viola arvensis), foxtail, green (green foxtail, Setaria viridis), deadnettle (henbit deadnettle, Lamium amplexicaule), ryegrass, Italian (Italian ryegrass, Lolium multiflorum), kochia (Kochia scoparia), lambsquarters (Chenopodium album), oilseed rape (Brassica napus), pigweed (Amaranthus retroflexus), chamomile (scentless chamomile, Matricaria inodora), Russian thistle (Salsola kali), speedwell (bird's-eye speedwell, Veronica persica), barley, spring (spring barley, Hordeum vulgare), wheat, spring (spring wheat, Triticum aestivum), buckwheat, wild (wild buckwheat, Polygonum convolvulus), mustard, wild (wild mustard, Sinapis arvensis), oat, wild (wild oat, Avena fatua), radish, wild (wild radish, Raphanus raphanistrum), […]), barley, winter (winter barley, Hordeum vulgare), and wheat, winter (winter wheat, Triticum aestivum) were planted into a silt loam soil and treated preemergence with test chemicals formulated in a non-phytotoxic solvent mixture which included a surfactant. At the same time, these species were planted in pots containing Redi-Earth® planting medium (Scotts Company, 14111 Scottslawn Road, Marysville, Ohio 43041) comprising spaghnum peat moss, vermiculite, wetting agent and starter nutrients and treated with postemergence applications of the test chemicals formulated in the same manner. Plants ranged in height from 2 to 18 cm (1- to 4-leaf stage). Treated plants and controls were maintained in a controlled growth environment for 7 to 21 days after which time all species were compared to controls and visually evaluated. Plant response ratings, summarized in Table D, are based on a scale of 0 to 100 where 0 is no effect and 100 is complete control. A dash (-) response means no test result.

windgrass = test: Test D pre-/postemergence herbicide test; assay type: in vivo, Apera spica-venti; conditions: for Plant response rating: Postemergence, Windgrass, scale 0 to 100; for Plant response rating, Windgrass: Preemergence, scale 0 to 100 (0 no effect, 100 complete control)
From the text: as §1

[1] = Preemergence, 62 g ai/ha, scale 0 to 100
[2] = Preemergence, 125 g ai/ha, scale 0 to 100 (0 no effect, 100 complete control)
[3] = Preemergence, 31 g ai/ha, scale 0 to 100 (0 no effect, 100 complete control)
[4] = Preemergence, 250 g ai/ha, scale 0 to 100 (0 no effect, 100 complete control)
[5] = Postemergence, 31 g ai/ha, scale 0 (no effect) to 100 (complete control)
[6] = Postemergence, 62 g ai/ha, scale 0 to 100 (0 no effect, 100 complete control)
[7] = Postemergence, 125 g ai/ha, scale 0 to 100 (0 no effect, 100 complete control)
[8] = Postemergence, 250 g ai/ha, scale 0 to 100 (0 no effect, 100 complete control)

O=C1NCC(c2ccc(F)c(F)c2)C1C(=O)Nc1cccc(F)c1F (racemic) [Compound 101]
Plant response rating, Rice, Transplanted (rice, transplanted; 64 g ai/ha): 0 | Plant response rating, Rice, Transplanted (rice, transplanted; 125 g ai/ha): 0 | Plant response rating, Rice, Transplanted (rice, transplanted; 250 g ai/ha): 0 | Plant response rating, Rice, Transplanted (rice, transplanted; 500 g ai/ha): 0

O=C1NCC(c2cccc(C(F)F)c2)C1C(=O)Nc1ccccc1F (racemic) [Compound 210]
Plant response rating, Rice, Transplanted (rice, transplanted; 125 g ai/ha): 0 | Plant response rating, Rice, Transplanted (rice, transplanted; 250 g ai/ha): 0 | Plant response rating, Rice, Transplanted (rice, transplanted; 500 g ai/ha): 0

O=C1NCCC1C(=O)N(c1ccc(F)c(F)c1)c1ccccc1F (centres unmarked) [Compound 5, N-(3,4-difluorophenyl)-N-(2-fluorophenyl)-2-oxo-3-pyrrolidinecarboxamide]
Plant response rating, Foxtail, Green (foxtail, green; [1]): 90 | Plant response rating, Foxtail, Green (foxtail, green; [2]): 90 | Foxtail, Green plant response rating (foxtail, green; [3]): 85 | Plant response rating, Foxtail, Green (foxtail, green; [4]): 95 | Plant response rating, Rice, Transplanted (rice, transplanted; 125 g ai/ha): 0 | Plant response rating, Rice, Transplanted (rice, transplanted; 250 g ai/ha): 0 | Plant response rating, Rice, Transplanted (rice, transplanted; 500 g ai/ha): 0 | Plant response rating, Rice, Transplanted (rice, transplanted; 1000 g ai/ha): 0 | Plant response rating, Rice, Transplanted (rice, transplanted; 2000 g ai/ha): 0

O=C1NCC(c2ccc(F)c(F)c2)C1C(=O)Nc1cccc(F)c1F (centres unmarked) [Compound 17, N-(2,3-difluorophenyl)-4-(3,4-difluorophenyl)-2-oxo-3-pyrrolidinecarboxamide]
Plant response rating, Foxtail, Green (foxtail, green; [5]): 0 | Plant response rating, Foxtail, Green (foxtail, green; [6]): 0 | Plant response rating, Foxtail, Green (foxtail, green; [7]): 0 | Plant response rating, Foxtail, Green (foxtail, green; [8]): 0 | Plant response rating, Foxtail, Green (foxtail, green; [1]): 95 | Plant response rating, Foxtail, Green (foxtail, green; [2]): 98 | Foxtail, Green plant response rating (foxtail, green; [3]): 95 | Plant response rating, Foxtail, Green (foxtail, green; [4]): 98 | Plant response rating (field violet; Postemergence, 16 g ai/ha): 0 | Plant response rating (field violet; Postemergence, 31 g ai/ha): 0 | Plant response rating (field violet; Postemergence, 62 g ai/ha): 0 | Plant response rating (field violet; Postemergence, 125 g ai/ha): 0 | Plant response rating (field violet; Postemergence, 250 g ai/ha): 10 | Plant response rating, Rice, Transplanted (rice, transplanted; 125 g ai/ha): 10 | Plant response rating, Rice, Transplanted (rice, transplanted; 250 g ai/ha): 10 | Plant response rating, Rice, Transplanted (rice, transplanted; 500 g ai/ha): 10 | Plant response rating, Rice, Transplanted (rice, transplanted; 1000 g ai/ha): 10 | Plant response rating, Rice, Transplanted (rice, transplanted; 2000 g ai/ha): 10 | Plant response rating (windgrass; 16 g ai/ha): 0 | Plant response rating (windgrass; 31 g ai/ha): 0 | Plant response rating (windgrass; 62 g ai/ha): 0 | Plant response rating (windgrass; 125 g ai/ha): 0 | Plant response rating (windgrass; 250 g ai/ha): 0

O=C1NCC(c2ccc(Cl)c(F)c2)C1C(=O)Nc1cccc(F)c1F (centres unmarked) [Compound 52]
Plant response rating, Foxtail, Green (foxtail, green; [5]): 0 | Plant response rating, Foxtail, Green (foxtail, green; [6]): 10 | Plant response rating, Foxtail, Green (foxtail, green; [7]): 30 | Plant response rating, Foxtail, Green (foxtail, green; [8]): 80 | Plant response rating, Foxtail, Green (foxtail, green; [1]): 90 | Plant response rating, Foxtail, Green (foxtail, green; [2]): 90 | Foxtail, Green plant response rating (foxtail, green; [3]): 80 | Plant response rating, Foxtail, Green (foxtail, green; [4]): 90 | Plant response rating (field violet; Postemergence, 16 g ai/ha): 0 | Plant response rating (field violet; Postemergence, 31 g ai/ha): 0 | Plant response rating (field violet; Postemergence, 62 g ai/ha): 0 | Plant response rating (field violet; Postemergence, 125 g ai/ha): 0 | Plant response rating (field violet; Postemergence, 250 g ai/ha): 0 | Plant response rating (windgrass; 16 g ai/ha): 0 | Plant response rating (windgrass; 31 g ai/ha): 0 | Plant response rating (windgrass; 62 g ai/ha): 0 | Plant response rating (windgrass; 125 g ai/ha): 0 | Plant response rating (windgrass; 250 g ai/ha): 0 | Plant response rating, Windgrass (windgrass; 62 g ai/ha): 0 | Plant response rating, Windgrass (windgrass; 125 g ai/ha): 40 | Plant response rating, Windgrass (windgrass; 16 g ai/ha): 0 | Plant response rating, Windgrass (windgrass; 31 g ai/ha): 0 | Plant response rating, Windgrass (windgrass; 250 g ai/ha): 60

O=C1NC[C@H](c2cccc(C(F)(F)F)c2)[C@H]1C(=O)Nc1ccccc1F [Compound 204, (3R,4S)—N-(2-fluorophenyl)-2-oxo-4-[3-(trifluoromethyl)phenyl]-3-pyrrolidinecarboxamide]
Plant response rating, Field Violet (field violet; Preemergence, 62 g ai/ha): 15 | Plant response rating, Field Violet (field violet; Preemergence, 125 g ai/ha): 25 | Plant response rating, Field Violet (field violet; Preemergence, 31 g ai/ha): 10 | Plant response rating (field violet; Preemergence, 250 g ai/ha): 25 | Plant response rating, Rice, Transplanted (rice, transplanted; 125 g ai/ha): 0 | Plant response rating, Rice, Transplanted (rice, transplanted; 250 g ai/ha): 0 | Plant response rating, Rice, Transplanted (rice, transplanted; 500 g ai/ha): 0 | Plant response rating, Windgrass (windgrass; 62 g ai/ha): 65 | Plant response rating, Windgrass (windgrass; 125 g ai/ha): 85 | Plant response rating, Windgrass (windgrass; 31 g ai/ha): 50 | Plant response rating, Windgrass (windgrass; 250 g ai/ha): 95

O=C1NC[C@H](c2cccc(C(F)(F)F)c2)[C@H]1C(=O)Nc1cccc(F)c1F [Compound 206]
Plant response rating, Field Violet (field violet; Preemergence, 62 g ai/ha): 35 | Plant response rating, Field Violet (field violet; Preemergence, 125 g ai/ha): 35 | Plant response rating, Field Violet (field violet; Preemergence, 31 g ai/ha): 15 | Plant response rating (field violet; Preemergence, 250 g ai/ha): 25 | Plant response rating, Rice, Transplanted (rice, transplanted; 64 g ai/ha): 0 | Plant response rating, Rice, Transplanted (rice, transplanted; 125 g ai/ha): 0 | Plant response rating, Rice, Transplanted (rice, transplanted; 250 g ai/ha): 10 | Plant response rating, Rice, Transplanted (rice, transplanted; 500 g ai/ha): 40 | Plant response rating, Windgrass (windgrass; 62 g ai/ha): 75 | Plant response rating, Windgrass (windgrass; 125 g ai/ha): 90 | Plant response rating, Windgrass (windgrass; 31 g ai/ha): 75 | Plant response rating, Windgrass (windgrass; 250 g ai/ha): 90

CN1CC(c2ccc(F)c(F)c2)C(C(=O)Nc2cccc(F)c2F)C1=O (centres unmarked) [Compound 303]
Plant response rating, Rice, Transplanted (rice, transplanted; 62 g ai/ha): 0 | Plant response rating, Rice, Transplanted (rice, transplanted; 125 g ai/ha): 0 | Plant response rating, Rice, Transplanted (rice, transplanted; 250 g ai/ha): 15 | Plant response rating, Rice, Transplanted (rice, transplanted; 500 g ai/ha): 30

From patent US10294202B2, “Pyrrolidinones as herbicides” (FMC Corporation, priority 2013, dated 2019)
